# US7704995B2 (Exelixis, Inc., priority 2003, dated 2010)
# Target: T1, Chk1 (Homo sapiens, UniProt O14757)
# T1 construct: purchased Upstate Biotechnology
# T1 sequence (O14757 1-476): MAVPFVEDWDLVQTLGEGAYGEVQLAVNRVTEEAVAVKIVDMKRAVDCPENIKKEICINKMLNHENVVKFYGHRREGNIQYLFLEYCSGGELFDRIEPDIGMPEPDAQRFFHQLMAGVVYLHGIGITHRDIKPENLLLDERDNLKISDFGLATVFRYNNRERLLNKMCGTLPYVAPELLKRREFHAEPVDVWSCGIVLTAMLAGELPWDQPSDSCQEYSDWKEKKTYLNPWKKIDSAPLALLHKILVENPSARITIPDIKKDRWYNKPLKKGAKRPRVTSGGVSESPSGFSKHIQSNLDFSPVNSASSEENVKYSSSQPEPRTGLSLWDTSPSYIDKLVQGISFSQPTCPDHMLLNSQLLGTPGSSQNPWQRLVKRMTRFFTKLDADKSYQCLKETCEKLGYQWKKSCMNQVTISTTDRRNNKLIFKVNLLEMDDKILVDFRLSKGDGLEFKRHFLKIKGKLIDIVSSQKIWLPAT
# Test: Chk1 kinase assay: incorporation of γ-33P ATP into immobilized myelin basic protein
# Type: biochemical
# Conditions: Table 11; Chk1 only; read-out: Chk1 IC50
# In short: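 Read-out is scintillation counting of 33P incorporated into plate-bound myelin basic protein. Chk1 runs at 10 nM enzyme with 10 μM ATP, Chk2 at 20 nM with 30 μM ATP, each for 1 hour at room temperature. Duplicate points; IC50 taken as 50% activity reduction, Ki computed from IC50.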
row,SMILES,IC50
1,"CC(C)(C)OC(=O)N1CCCC(NC(=O)c2nc(-c3cccc(C(=O)N[C@H]4CCc5ccccc54)c3)cnc2N)C1 (stereo partly drawn) [Example 728, 1,1-dimethylethyl 3-({[3-amino-6-(3-{[(1S)-2,3-dihydro-1H-inden-1-ylamino]carbonyl}phenyl)pyrazin-2-yl]carbonyl}amino)piperidine-1-carboxylate]",≥ 10000 nM
2,"Nc1ncc(-c2cccc(C(=O)N[C@H]3CCc4ccccc43)c2)nc1C(=O)NC1CCCNC1 (stereo partly drawn) [Example 729, 3-amino-6-(3-{[(1S)-2,3-dihydro-1H-inden-1-ylamino]carbonyl}phenyl)-N-piperidin-3-ylpyrazine-2-carboxamide]",< 50 nM
3,"CCN1CCCC(NC(=O)c2nc(-c3cccc(C(=O)N[C@H]4CCc5ccccc54)c3)cnc2N)C1 (stereo partly drawn) [Example 730, 3-amino-6-(3-{[(1S)-2,3-dihydro-1H-inden-1-ylamino]carbonyl}phenyl)-N-(1-ethylpiperidin-3-yl)pyrazine-2-carboxamide]",50 to 1000 nM
4,"CCN1CC[C@H](NC(=O)c2nc(-c3cccc(C(=O)N[C@@H]4c5ccccc5C[C@@H]4O)c3)cnc2N)C1 [Example 731, 3-amino-N-[(3S)-1-ethylpyrrolidin-3-yl]-6-[3-({[(1R,2S)-2-hydroxy-2,3-dihydro-1H-inden-1-yl]amino}carbonyl)phenyl]pyrazine-2-carboxamide]",50 to 1000 nM
5,"CCN1CCCC(c2nnc(-c3nc(-c4cccc(CO)c4)cnc3N)[nH]2)C1 (stereo not drawn) [Example 732, (3-{5-amino-6-[5-(1-ethylpiperidin-3-yl)-4H-1,2,4-triazol-3-yl]pyrazin-2-yl}phenyl)methanol]",1000 to 10000 nM
6,"CCN1CCCC(c2nnc(-c3nc(-c4cccc(CN[C@H]5CCc6ccccc65)c4)cnc3N)[nH]2)C1 (stereo partly drawn) [Example 733, 5-(3-{[(1S)-2,3-dihydro-1H-inden-1-ylamino]methyl}phenyl)-3-[5-(1-ethylpiperidin-3-yl)-4H-1,2,4-triazol-3-yl]pyrazin-2-amine]",50 to 1000 nM
7,"CCn1nc(-c2nc(-c3cccc(C(=O)N[C@@H]4CCc5ccccc54)c3)cnc2N)nc1C1CCCNC1 (stereo partly drawn) [Example 734, 3-[5-amino-6-(1-ethyl-5-piperidin-3-yl-1H-1,2,4-triazol-3-yl)pyrazin-2-yl]-N-[(1R)-2,3-dihydro-1H-inden-1-yl]benzamide]",50 to 1000 nM
8,"Cn1nc(-c2nc(-c3cccc(C(=O)N[C@H]4CCc5ccccc54)c3)cnc2N)nc1C1CCCNC1 (stereo partly drawn) [Example 735, 3-(5-amino-6-(1-methyl-5-piperidin-3-yl-1H-1,2,4-triazol-3-yl)pyrazin-2-yl]-N-[(1S)-2,3-dihydro-1H-inden-1-yl]benzamide]",50 to 1000 nM
9,"CN1CCCC(c2n[nH]c(-c3nc(-c4cccc(CO)c4)cnc3N)n2)C1 (stereo not drawn) [Example 736, (3-{5-amino-6-[3-(1-methylpiperidin-3-yl)-1H-1,2,4-triazol-5-yl]pyrazin-2-yl}phenyl)methanol]",1000 to 10000 nM
10,"CN1CCCC(c2n[nH]c(-c3nc(-c4cccc(CN[C@H]5CCc6ccccc65)c4)cnc3N)n2)C1 (stereo partly drawn) [Example 737, 5-(3-{[(1S)-2,3-dihydro-1H-inden-1-ylamino]methyl}phenyl)-3-[3-(1-methylpiperidin-3-yl)-1H-1,2,4-triazol-5-yl]pyrazin-2-amine]",50 to 1000 nM
11,"COc1ccc(CNC(=O)c2cccc(-c3cnc(N)c(C(=O)N[C@H]4CCN(C(=O)OC(C)(C)C)C4)n3)c2)cc1 [Example 738, 1,1-dimethylethyl (3S)-3-{[(3-amino-6-{3-[({[4-(methyloxy)phenyl]methyl}amino)carbonyl]phenyl}pyrazin-2-yl)carbonyl]amino}pyrrolidine-1-carboxylate]",50 to 1000 nM
12,"CC(C)(C)OC(=O)N1CC[C@H](NC(=O)c2nc(-c3cccc(C(=O)NCc4ccc(OC(F)(F)F)cc4)c3)cnc2N)C1 [Example 739, 1,1-dimethylethyl (3S)-3-({[3-amino-6-(3-{[({4-[(trifluoromethyl)oxy]phenyl}methyl)amino]carbonyl}phenyl)pyrazin-2-yl]carbonyl}amino)pyrrolidine-1-carboxylate]",50 to 1000 nM
13,"CC(C)(C)OC(=O)N1CC[C@H](NC(=O)c2nc(-c3cccc(C(=O)NCc4c(F)cccc4Cl)c3)cnc2N)C1 [Example 740, 1,1-dimethylethyl (3S)-3-[({3-amino-6-[3-({[(2-chloro-6-fluorophenyl)methyl]amino}carbonyl)phenyl]pyrazin-2-yl}carbonyl)amino]pyrrolidine-1-carboxylate]",1000 to 10000 nM
14,"CSc1ccc(CNC(=O)c2cccc(-c3cnc(N)c(C(=O)N[C@H]4CCN(C(=O)OC(C)(C)C)C4)n3)c2)cc1 [Example 741, 1,1-dimethylethyl (3S)-3-{[(3-amino-6-{3-[({[4-(methylthio)phenyl]methyl}amino)carbonyl]phenyl}pyrazin-2-yl)carbonyl]amino}pyrrolidine-1-carboxylate]",1000 to 10000 nM
15,"CC(C)(C)OC(=O)N1CC[C@H](NC(=O)c2nc(-c3cccc(C(=O)NC4Cc5ccccc5C4)c3)cnc2N)C1 [Example 742, 1,1-dimethylethyl (3S)-3-{[(3-amino-6-{3-[(2,3-dihydro-1H-inden-2-ylamino)carbonyl]phenyl}pyrazin-2-yl)carbonyl]amino}pyrrolidine-1-carboxylate]",50 to 1000 nM
16,"COc1ccc(CNC(=O)c2cccc(-c3cnc(N)c(C(=O)N[C@H]4CCNC4)n3)c2)cc1 [Example 743, 3-amino-6-{3-[({[4-(methyloxy)phenyl]methyl}amino)carbonyl]phenyl}-N-[(3S)-pyrrolidin-3-yl]pyrazine-2-carboxamide]",50 to 1000 nM
17,"Nc1ncc(-c2cccc(C(=O)NCc3ccc(OC(F)(F)F)cc3)c2)nc1C(=O)N[C@H]1CCNC1 [Example 744, 3-amino-N-[(3S)-pyrrolidin-3-yl]-6-(3-{[({4-[(trifluoromethyl)oxy]phenyl}methyl)amino]carbonyl}phenyl)pyrazine-2-carboxamide]",< 50 nM
18,"Nc1ncc(-c2cccc(C(=O)NC3Cc4ccccc4C3)c2)nc1C(=O)N[C@H]1CCNC1 [Example 745, 3-amino-6-{3-[(2,3-dihydro-1H-inden-2-ylamino)carbonyl]phenyl}-N-[(3S)-pyrrolidin-3-yl]pyrazine-2-carboxamide]",50 to 1000 nM
19,"Nc1ncc(-c2cccc(C(=O)NCc3c(F)cccc3Cl)c2)nc1C(=O)N[C@H]1CCNC1 [Example 746, 3-amino-6-[3-({[(2-chloro-6-fluorophenyl)methyl]amino}carbonyl)phenyl]-N-[(3S)-pyrrolidin-3-yl]pyrazine-2-carboxamide]",50 to 1000 nM
20,"CSc1ccc(CNC(=O)c2cccc(-c3cnc(N)c(C(=O)N[C@H]4CCNC4)n3)c2)cc1 [Example 747, 3-amino-6-{3-[({[4-(methylthio)phenyl]methyl}amino)carbonyl]phenyl}-N-[(3S)-pyrrolidin-3-yl]pyrazine-2-carboxamide]",< 50 nM
21,"N=C(NNc1ccncc1)c1nc(-c2cccc(C(=O)N[C@@H]3CCc4ccccc43)c2)cnc1N [Example 748, 3-{5-amino-6-[imino(2-pyridin-4-ylhydrazino)methyl]pyrazin-2-yl}-N-[(1R)-2,3-dihydro-1H-inden-1-yl]benzamide]",1000 to 10000 nM
22,"CCn1nc(-c2nc(-c3cccc(C(=O)N[C@H]4CCc5ccccc54)c3)cnc2N)nc1[C@@H]1CCCN(C(=O)OCc2ccccc2)C1 [Example 749, phenylmethyl (3R)-3-{3-[3-amino-6-(3-{[(1S)-2,3-dihydro-1H-inden-1-ylamino]carbonyl}phenyl)pyrazin-2-yl]-1-ethyl-1H-1,2,4-triazol-5-yl}piperidine-1-carboxylate]",≥ 10000 nM
23,"CNC(=O)c1nc(-c2cccc([C@H](C)N[C@H]3CCc4ccccc43)c2)cnc1N [Example 750, 3-amino-6-(3-{(1S)-1-[(1S)-2,3-dihydro-1H-inden-1-ylamino]ethyl}phenyl)-N-methylpyrazine-2-carboxamide]",50 to 1000 nM
24,"Nc1ncc(-c2cccc(C(=O)N[C@@H]3c4ccccc4C[C@@H]3O)c2)nc1C(=O)NCCc1c[nH]cn1 [Example 751, 3-amino-6-[3-({[(1R,2S)-2-hydroxy-2,3-dihydro-1H-inden-1-yl]amino}carbonyl)phenyl]-N-[2-(1H-imidazol-4-yl)ethyl]pyrazine-2-carboxamide]",50 to 1000 nM
25,"CC(C)(C)OC(=O)N1CC[C@@H](CNC(=O)c2nc(-c3cccc(C(=O)N[C@H]4CCc5ccccc54)c3)cnc2N)C1 [Example 752, 1,1-dimethylethyl (3S)-3-[({[3-amino-6-(3-{[(1S)-2,3-dihydro-1H-inden-1-ylamino]carbonyl}phenyl)pyrazin-2-yl]carbonyl}amino)methyl]pyrrolidine-1-carboxylate]",≥ 10000 nM
26,"Nc1ncc(-c2cccc(C(=O)N[C@H]3CCc4ccccc43)c2)nc1C(=O)NC[C@@H]1CCNC1 [Example 753, 3-amino-6-(3-{[(1S)-2,3-dihydro-1H-inden-1-ylamino]carbonyl}phenyl)-N-[(3R)-pyrrolidin-3-ylmethyl]pyrazine-2-carboxamide]",< 50 nM
27,"Cn1nc(-c2nc(-c3cccc(C(=O)N[C@H]4CCc5ccccc54)c3)cnc2N)nc1[C@@H]1CCCN(C(=O)OCc2ccccc2)C1 [Example 754, phenylmethyl (3R)-3-{3-[3-amino-6-(3-{[(1S)-2,3-dihydro-1H-inden-1-ylamino]carbonyl}phenyl)pyrazin-2-yl]-1-methyl-1H-1,2,4-triazol-5-yl}piperidine-1-carboxylate]",1000 to 10000 nM
